From patent US20230348450A1, “CARBOXYLIC ACID-CONTAINING COMPOUNDS AS MODULATORS OF BIS-PHOSPHOGLYCERATE MUTASE FOR THE TREATMENT OF SICKLE CELL DISEASE” (Genzyme Corporation, priority 2020, published 2023)

Tests used:
hBPGM = hBPGM (Homo sapiens (Human), UniProt P07738); assay: BPGM Synthase Assay; format: biochemical; conditions: Table 6 additional results; read-out: huBPGM: synthase Enzyme IC50
In short: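 BPGM (5 nM) with GAPDH (0.4 U/mL) was incubated with compound for 30 min at RT in pH 7.4 Tris buffer with 3.23 mM KH2PO4 and 1 mM DTT. Reaction ran 60 min with NAD, 3PG and GAP (substrate solution 2 mM, 20 μM and 800 μM). After koningic acid stop, NADH fluorescence was read, then resorufin from diaphorase/resazurin coupling.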

[1] = target: human Bisphosphoglycerate mutase (hBPGM) (Homo sapiens (Human), UniProt P07738); assay: BPGM Phosphatase Assay; format: biochemical; conditions: Table 6 additional results; read-out: huBPGM: phosphatase Enzyme EC50
Protocol: Solutions of the test compounds were then added to the plate and the DMSO content was normalized across the plate. The plate was incubated at RT for 15 min. Next, the substrate 2,3-BPG (5 μL) was added to all the wells, and the plate was sealed and incubated for 24 hr at RT. After incubation, BIOMOL green dye (40 μL) was added to all the wells, the plate was shaken to mix, and the plate was incubated at RT for 20-30 min.

Sequence of human Bisphosphoglycerate mutase (hBPGM) (P07738 whole entry): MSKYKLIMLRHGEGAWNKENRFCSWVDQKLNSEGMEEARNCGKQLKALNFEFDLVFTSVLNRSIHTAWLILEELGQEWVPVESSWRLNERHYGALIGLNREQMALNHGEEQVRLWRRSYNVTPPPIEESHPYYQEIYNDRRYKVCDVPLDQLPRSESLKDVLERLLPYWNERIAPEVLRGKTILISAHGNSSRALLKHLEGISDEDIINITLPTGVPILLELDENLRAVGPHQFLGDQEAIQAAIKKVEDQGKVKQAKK
Sequence of hBPGM (P07738 whole entry, looked up): as the sequence (P07738 whole entry) above

Cc1nc(COc2ccccn2)sc1-c1cccc(-c2ccc(C(=O)O)cc2)c1 [Example 72]
IC50 (hBPGM): 0.48 µM | EC50 [1]: > 25 µM

Cc1nc(CNC(=O)OCCN(C)C)sc1-c1csc(-c2cc(O)c(C(=O)O)cc2F)n1 [Example 114]
IC50 (hBPGM): 0.15 µM | EC50 [1]: 0.17 µM

COC(=O)C(=O)NCc1nc(C)c(-c2csc(-c3cc(O)c(C(=O)O)cc3F)n2)s1 [Example 201]
IC50 (hBPGM): 0.11 µM | EC50 [1]: 0.64 µM

Cc1nc(Cc2ccccc2)sc1-c1csc(-c2ccc(C(=O)O)c(O)c2)n1 [Example 280]
IC50 (hBPGM): 0.33 µM | EC50 [1]: 0.14 µM

Cc1nc(COc2cccc(C#N)n2)sc1-c1cccc(-c2ccc(C(=O)O)c(O)c2)c1 [Example 256]
IC50 (hBPGM): 0.88 µM | EC50 [1]: 0.07 µM

Cc1nc(CNC(=O)N2CCCC2)sc1-c1csc(-c2cc(O)c(C(=O)O)cc2F)n1 [Example 198]
IC50 (hBPGM): 0.05 µM | EC50 [1]: 0.19 µM

Cc1nc(CNC2CCCCC2)sc1-c1csc(-c2cc(O)c(C(=O)O)cc2F)n1 [Example 174]
IC50 (hBPGM): 0.53 µM | EC50 [1]: 0.23 µM

Cc1nc(Cc2ccccn2)sc1-c1cccc(-c2ccc(C(=O)O)c(O)c2)c1 [Example 282]
IC50 (hBPGM): 0.75 µM | EC50 [1]: 0.11 µM

COC(=O)NCc1nc(C)c(-c2csc(-c3cc(O)c(C(=O)NCC(=O)NCC(=O)O)cc3F)n2)s1 [Example 119]
IC50 (hBPGM): 0.34 µM | EC50 [1]: 1.8 µM

Cc1nc(COc2ncccn2)sc1-c1cccc(-c2ccc(C(=O)O)c(C#N)c2)n1 [Example 78]
IC50 (hBPGM): 0.18 µM | EC50 [1]: 0.07 µM

CC(=O)NCc1nc(C)c(-c2cccc(-c3ccc(C(=O)O)c(O)c3)c2)s1 [Example 278]
IC50 (hBPGM): 0.9 µM | EC50 [1]: 2.1 µM

Cc1nc(Cc2ccccc2)sc1-c1cccc(-c2ccc(C(=O)O)c(O)c2)c1 [Example 289]
IC50 (hBPGM): 1.2 µM | EC50 [1]: 0.13 µM

Cc1nc(COc2cccnn2)sc1-c1csc(-c2cc(O)c(C(=O)O)cc2F)n1 [Example 131]
IC50 (hBPGM): 0.042 µM | EC50 [1]: 0.04 µM

Cc1nc(COc2cnccn2)sc1-c1csc(-c2cc(O)c(C(=O)O)cc2F)n1 [Example 140]
IC50 (hBPGM): 0.095 µM | EC50 [1]: 0.03 µM

Cc1nc(CNC(=O)C(C)C)sc1-c1csc(-c2cc(O)c(C(=O)O)cc2F)n1 [Example 231]
IC50 (hBPGM): 0.052 µM | EC50 [1]: 0.17 µM

COC(=O)NCc1nc(C)c(-c2csc(-c3cc(C)c(C(=O)O)c(O)c3)n2)s1 [Example 208]
IC50 (hBPGM): 0.36 µM | EC50 [1]: 0.42 µM

Cc1nc(CNC2CCC2)sc1-c1csc(-c2cc(O)c(C(=O)O)cc2F)n1 [Example 186]
IC50 (hBPGM): 0.38 µM | EC50 [1]: 0.03 µM

Cc1nc(C)c(-c2csc(-c3cc(O)c(C(=O)O)c(F)c3)n2)s1 [Example 255]
IC50 (hBPGM): 0.76 µM | EC50 [1]: 1.8 µM

Cc1nc(C)c(-c2csc(-c3ccc(C(=O)O)c(O)c3)n2)s1 [Example 184]
IC50 (hBPGM): 1.5 µM | EC50 [1]: 0.08 µM

Cc1nc(COC(N)=O)sc1-c1cccc(-c2ccc(C(=O)O)c(O)c2)c1 [Example 252]
IC50 (hBPGM): 1 µM | EC50 [1]: 1 µM

CC(=O)Nc1nc(C)c(-c2csc(-c3cc(O)c(C(=O)O)cc3F)n2)s1 [Example 194]
IC50 (hBPGM): 0.25 µM | EC50 [1]: 0.14 µM

Cc1nc(CNC(=O)c2cccnn2)sc1-c1csc(-c2cc(O)c(C(=O)O)cc2F)n1 [Example 197]
IC50 (hBPGM): 0.024 µM | EC50 [1]: 0.22 µM

Cc1nc(Cn2cccn2)sc1-c1csc(-c2cc(O)c(C(=O)O)cc2F)n1 [Example 248]
IC50 (hBPGM): 0.11 µM | EC50 [1]: 0.11 µM

Cc1nc(Cn2ccccc2=O)sc1-c1cccc(-c2ccc(C(=O)O)c(O)c2)n1 [Example 101]
IC50 (hBPGM): 0.76 µM | EC50 [1]: 7.3 µM

Cc1nc(COc2ncccn2)sc1-c1cccc(-c2ccc(C(=O)O)cc2)n1 [Example 95]
IC50 (hBPGM): 0.28 µM | EC50 [1]: 2.1 µM

COC(=O)NCc1nc(C)c(-c2csc(-c3ccc(C(=O)O)cc3F)n2)s1 [Example 238]
IC50 (hBPGM): 1.3 µM | EC50 [1]: > 25 µM

Cc1ccnc(OCc2nc(C)c(-c3csc(-c4cc(O)c(C(=O)O)cc4F)n3)s2)n1 [Example 133]
IC50 (hBPGM): 0.05 µM | EC50 [1]: 0.08 µM

COC(=O)NCc1nc(C)c(-c2ccnc(-c3cc(O)c(C(=O)O)cc3F)n2)s1 [Example 155]
IC50 (hBPGM): 0.31 µM | EC50 [1]: > 25 µM

Cc1cccc(OCc2nc(C)c(-c3cccc(-c4ccc(C(=O)O)c(O)c4)c3)s2)n1 [Example 269]
IC50 (hBPGM): 2 µM | EC50 [1]: 0.27 µM

Cc1ccc(Cc2nc(C)c(-c3cccc(-c4ccc(C(=O)O)c(O)c4)c3)s2)cn1 [Example 257]
IC50 (hBPGM): 0.36 µM | EC50 [1]: 0.16 µM

COC(=O)NCc1nc(C)c(-c2cccc(-c3cc(O)c(C(=O)O)cc3F)n2)s1 [Example 235]
IC50 (hBPGM): 0.11 µM | EC50 [1]: 0.14 µM

COC(=O)NC(C)c1nc(C)c(-c2csc(-c3cc(O)c(C(=O)O)cc3F)n2)s1 (centres unmarked) [Example 188]
IC50 (hBPGM): 0.055 µM | EC50 [1]: 0.16 µM

Cc1nc(COC(=O)N(C)C)sc1-c1csc(-c2cc(O)c(C(=O)O)cc2F)n1 [Example 158]
IC50 (hBPGM): 0.044 µM | EC50 [1]: > 25 µM

Cc1nc(CNC(=O)C2CC2)sc1-c1csc(-c2ccc(C(=O)O)c(O)c2)n1 [Example 249]
IC50 (hBPGM): 0.18 µM | EC50 [1]: 0.21 µM

Cc1nc(C)c(-c2csc(-c3ccc(C(=O)O)c(O)c3F)n2)s1 [Example 240]
IC50 (hBPGM): 2.3 µM | EC50 [1]: 2.5 µM

Cc1nc(Cc2cccnc2)sc1-c1csc(-c2ccc(C(=O)O)c(O)c2)n1 [Example 250]
IC50 (hBPGM): 0.25 µM | EC50 [1]: 0.29 µM

Cc1nc(COc2ncccn2)sc1-c1cccc(-c2csc(C(=O)O)n2)n1 [Example 87]
IC50 (hBPGM): 3.4 µM | EC50 [1]: 8.7 µM

Cc1nc(CNC(=O)c2cc[nH]n2)sc1-c1csc(-c2cc(O)c(C(=O)O)cc2F)n1 [Example 172]
IC50 (hBPGM): 0.04 µM | EC50 [1]: 0.04 µM

Cc1nc(CNC(=O)c2ccn(C)n2)sc1-c1csc(-c2cc(O)c(C(=O)O)cc2F)n1 [Example 173]
IC50 (hBPGM): 0.049 µM | EC50 [1]: 0.1 µM

COCCOCCOCCOCCOCC(=O)NCc1nc(C)c(-c2csc(-c3ccc(C(=O)O)c(O)c3)n2)s1 [Example 121]
IC50 (hBPGM): 1.8 µM | EC50 [1]: 3.2 µM

Cc1nc(CNC(=O)OCC(F)(F)F)sc1-c1csc(-c2cc(O)c(C(=O)O)cc2F)n1 [Example 136]
IC50 (hBPGM): 0.31 µM | EC50 [1]: 0.09 µM

Cc1nc(COC(=O)N(C)CCN(C)C)sc1-c1csc(-c2cc(O)c(C(=O)O)cc2F)n1 [Example 113]
IC50 (hBPGM): 0.13 µM | EC50 [1]: 0.17 µM

Cc1nc(COc2ccccn2)sc1-c1csc(-c2cc(O)c(C(=O)O)cc2F)n1 [Example 163]
IC50 (hBPGM): 0.17 µM | EC50 [1]: 0.06 µM

Cc1nc(COc2ccccn2)sc1-c1cccc(-c2cc(O)c(C(=O)O)cc2F)n1 [Example 164]
IC50 (hBPGM): 0.17 µM | EC50 [1]: 0.07 µM

Cc1nc(CNC(=O)C2CCN(C)CC2)sc1-c1csc(-c2cc(O)c(C(=O)O)cc2F)n1 [Example 126]
IC50 (hBPGM): 0.46 µM | EC50 [1]: 0.24 µM

Cc1nc(CNC(=O)C(C)(C)C)sc1-c1csc(-c2cc(O)c(C(=O)O)cc2F)n1 [Example 124]
IC50 (hBPGM): 0.049 µM | EC50 [1]: 0.05 µM

Cc1nc(CNC(=O)c2cccnn2)sc1-c1csc(-c2cc(O)c(C(=O)O)cc2F)n1 [Example 171]
IC50 (hBPGM): 0.028 µM | EC50 [1]: 0.03 µM

COC(=O)N[C@@H](C)c1nc(C)c(-c2csc(-c3cc(O)c(C(=O)O)cc3F)n2)s1 [Example 177]
IC50 (hBPGM): 0.059 µM | EC50 [1]: 0.16 µM

Cc1nc(COc2ncccn2)sc1-c1cccc(-c2csc(C(=O)O)c2)n1 [Example 79]
IC50 (hBPGM): 0.55 µM | EC50 [1]: 0.11 µM

Cc1nc(Cn2cccn2)sc1-c1cccc(-c2cc(O)c(C(=O)O)cc2F)c1 [Example 262]
IC50 (hBPGM): 0.53 µM | EC50 [1]: 0.51 µM

COC(=O)NCc1nc(C)c(-c2csc(-c3ccc(C(=O)O)c(O)c3)n2)s1 [Example 213]
IC50 (hBPGM): 0.13 µM | EC50 [1]: 0.14 µM

Cc1nc(CNC(=O)c2ccccc2)sc1-c1csc(-c2cc(O)c(C(=O)O)cc2F)n1 [Example 212]
IC50 (hBPGM): 0.16 µM | EC50 [1]: 0.1 µM

Cc1nc(CO)sc1-c1cccc(-c2cc(C(=O)O)cs2)n1 [Example 75]
IC50 (hBPGM): 4.6 µM | EC50 [1]: > 25 µM

Cc1nc(CNC(=O)C(C)(C)C)sc1-c1cccc(-c2ccc(C(=O)O)cc2)c1 [Example 73]
IC50 (hBPGM): 2.2 µM | EC50 [1]: > 25 µM

Cc1nc(C)c(-c2csc(-c3cc(O)c(C(=O)O)cn3)n2)s1 [Example 284]
IC50 (hBPGM): 2.8 µM | EC50 [1]: 2.9 µM

Cc1nc(CN)sc1-c1csc(-c2ccc(C(=O)O)c(O)c2)c1 [Example 244]
IC50 (hBPGM): 0.84 µM | EC50 [1]: > 25 µM

Cc1nc(Cn2c(C#N)cccc2=O)sc1-c1cccc(-c2ccc(C(=O)O)c(O)c2)c1 [Example 103]
IC50 (hBPGM): 0.95 µM | EC50 [1]: 0.13 µM

Cc1nc(CNC(=O)C2CC2)sc1-c1csc(-c2cc(O)c(C(=O)O)cc2F)n1 [Example 232]
IC50 (hBPGM): 0.06 µM | EC50 [1]: 0.093 µM

Cc1nc(Cc2ccccc2)sc1-c1cccc(-c2cc(O)c(C(=O)O)cc2F)c1 [Example 105]
IC50 (hBPGM): 1.6 µM | EC50 [1]: 0.29 µM

Cc1nc(COc2cccc(C#N)c2)sc1-c1cccc(-c2ccc(C(=O)O)c(O)c2)c1 [Example 108]
IC50 (hBPGM): 3.2 µM | EC50 [1]: 0.5 µM

Cc1nc(CNC(=O)CCN(C)C)sc1-c1csc(-c2cc(O)c(C(=O)O)cc2F)n1 [Example 115]
IC50 (hBPGM): 0.67 µM | EC50 [1]: 0.18 µM

Cc1nc(COc2ccccn2)sc1-c1csc(-c2cc(O)c(C(=O)O)cc2F)c1 [Example 146]
IC50 (hBPGM): 0.46 µM | EC50 [1]: 0.05 µM

Cc1nc(CN2CCOC2=O)sc1-c1cccc(-c2ccc(C(=O)O)c(O)c2)c1 [Example 263]
IC50 (hBPGM): 1.3 µM | EC50 [1]: 1.4 µM

Cc1nc(CNC(=O)c2cccnn2)sc1-c1cccc(-c2cc(O)c(C(=O)O)cc2F)n1 [Example 153]
IC50 (hBPGM): 0.099 µM | EC50 [1]: 0.07 µM
